{
  "source": "patent US6410516B1",
  "key": {"[1]": {"system": "NF-κB", "experiment": "GTP stimulation of NF-κB complex formation in the binding assay", "type": "biochemical", "details": "GTP 3 mM added to the binding assay; virus-induced extracts"}, "[2]": {"system": "NF-KB in 70Z/3 cells", "experiment": "TPA stimulation, subcellular fractions of 70Z/3 cells (mobility shift assay)", "type": "cell-based, mouse", "details": "TPA-stimulated cells; fractions treated with formamide and DOC; densitometric scanning", "protocol": "Nuclear extracts, cytosolic and postnuclear membrane fractions were analyzed at equal amounts of protein in an electrophoretic mobility shift assay, described in Example 1, followed by fluorography.\nTo examine whether the form of NF-kB detected after in vitro activation in the cytosolic fraction could quantitatively account for the NF-kB found in nuclear extracts after TPA stimulation of cells, subcellular fractions of 70Z/3 cells were reinvestigated in mobility shift assays after treatment with formamide and DOC using equal cell-equivalents of subcellular fractions. Equal cell-equivalents of nuclear extracts (N) and cytosolic (C) and post-nuclear membrane fractions (P) from control (Co) and TPA-stimulated cells (TPA) were left untreated (lanes 1-6 and 13-18) or subjected to a formamide/desoxycholate treatment (Fa+DOC; lanes 7-12 and 19-24; for conditions see FIG. 31, lane 11). This treatment was preferred over the DOC/NP-40 chase treatment because it gave a higher resolution of bands in mobility shift assays. DNA-binding reactions were performed in the presence of 3.2 ug poly(d[I-C]) using 4.4 ug of protein from nuclear extracts, 8.8 ug of protein from cytosolic fractions or 2.2 ug of protein from postnuclear membrane fractions (all in 4 ul buffer D(+)). Fluorograms of native gels are shown. […]"}, "[3]": {"system": "endogenous β-IFN mRNA", "experiment": "Northern blot, endogenous β-IFN mRNA in 70Z/3 cells", "type": "cell-based, mouse", "details": "PMA 50 ng/ml, LPS 15 μg/ml or Sendai virus, 0 to 20 hr", "protocol": "(§1) FIG. 42C presents results of Northern blot analyses of 70Z/3 cells treated with various inducers.\n(§2) RNA preparation and Northern blot analysis were carried out as previously described by Zinn et al., Cell, 34, 865-879 (1983)."}, "[4]": {"system": "AP-1 in HeLa cells", "experiment": "TPA stimulation, AP-1 DNA-binding activity in HeLa subcellular fractions", "type": "cell-based, human", "source_text": "FIG. 28 represents analysis of subcellular fractions for DNA-binding activity of the TPA-inducible transcription factor AP-1. Equal cell-equivalents of nuclear extracts (N) and cytosolic fractions (C) from 70Z/3 and HeLa cells were used in mobility shift assays. AP-1 specific DNA-binding activity was detected using an end-labeled EcoRI-HindIII fragment from the yeast HIS 4 promoter containing three binding sites for GCN4 recognized by mammalian AP-1. The three protein-DNA complexes seen on shorter exposures of the fluorogram are indicated by filled arrowheads and the position of unbound DNA-fragment by an open arrowhead."}, "[5]": {"system": "endogenous κ gene", "experiment": "Northern blot, endogenous κ gene expression in 70Z/3 cells", "type": "cell-based, mouse", "details": "PMA 50 ng/ml, LPS 15 μg/ml or Sendai virus, 0 to 20 hr", "protocol": "as §1, §2"}, "[6]": {"system": "HeLa cells", "details": "anisomycin at 10; cited from earlier work"}, "[7]": {"system": "70Z/3 cells", "details": "10 μg/mo cycloheximide; cited from earlier work"}},
  "data": [
    {"smiles": "Nc1nc2c(ncn2[C@@H]2O[C@H](COP(=O)(O)OP(=O)(O)OP(=O)(O)O)[C@@H](O)[C@H]2O)c(=O)[nH]1", "note": "[GTP]", "values": [
      {"measurement": "NF-κB complex formation", "setting": "[1]", "value": "stimulated"}
    ]},
    {"smiles": "CCCCCCCCCCCCCC(=O)O[C@@H]1[C@@H](C)[C@@]2(O)[C@@H](C=C(CO)C[C@]3(O)C(=O)C(C)=C[C@@H]23)[C@@H]2C(C)(C)[C@]12OC(C)=O", "note": "[PMA, phorbol 12-myristate-13-acetate]", "values": [
      {"measurement": "kB-specific DNA-binding activity found in nuclear extracts", "setting": "[2]", "value": 80, "unit": "%"},
      {"measurement": "endogenous β-IFN mRNA", "setting": "[3]", "value": "not"},
      {"measurement": "AP-1 DNA-binding activity in nuclear extracts after TPA-stimulation", "setting": "[4]", "value": "did not show an increase"},
      {"measurement": "endogenous κ gene expression", "setting": "[5]", "value": "activation of the endogenous κ gene"}
    ]},
    {"smiles": "COc1ccc(C[C@H]2NC[C@H](O)[C@H]2OC(C)=O)cc1", "note": "[anisomycin]", "values": [
      {"measurement": "inhibition of protein synthesis", "setting": "[6]", "value": "approximately 99%"}
    ]},
    {"smiles": "C[C@@H]1C[C@@H]([C@H](O)CC2CC(=O)NC(=O)C2)C(=O)[C@@H](C)C1", "note": "[cycloheximide]", "values": [
      {"measurement": "inhibition of protein synthesis", "setting": "[7]", "value": "greater than 95%"}
    ]}
  ]
}
